# Laboratory results: patent publication US7842690B2, “Cyclic hydroxylamine as psychoactive compounds” (BTG International Limited, priority 2003, dated 2010)
# Where a name gives a salt, the structure may show the parent alone.
# Columns and labels:
# Assay type in all cases: in vivo
# [1] = tested on: Male rats of the Wistar strain; assay: Despair test (forced swim); conditions: 5-min test, mean ± S.E.M.
# [2] = tested on: Male rats of the Wistar strain; assay: Reserpine-induced changes in open field behaviour; conditions: reserpine 0.1 mg/kg SC daily for 14 days, 5-min test, mean ± S.E.M.
# Procedure: Rats treated with the compound of Example 1 were compared to either rats treated with the classical antidepressant, clomipramine or controls in the despair test (forced swim). The same groups were also tested for the reserpine-induced changes in open field behaviour.
# Male rats of the Wistar strain (purchased from Charles River, Italy) weighing 220-240 g were used throughout all experiments. For at least 1 week prior to the experiment, the rats were housed four to a cage at a constant temperature of 21° C., and under a 12-h light/dark cycle (lights on between 08:00 and 20:00), with food and water available ad libitum.
# An acute IP injection of clomipramine hydrochloride (50 mg/kg) or of the compound of Example 1 (0.2 and 0.5 mg/kg) or physiological saline was made in animals subjected to the reserpine-induced changes in the open field test (the injection was made together with the last reserpine administration, e.g. 1 h prior to the open field test).
# All animals were gently manipulated by experienced facilities' keepers avoiding any environmental or physical stress. Rats subjected to drugs or physiological saline administration received an injection of a 1-mL standard volume of solution with a 23-gauge stainless steel needle of 31 mm length (for […]) or 21 mm length (for SC injections). The animals were randomly assigned to any treatment group and were used only once in the behavioural experiments.
# Reserpine-induced changes in open field behaviour was studied according to the method described in Naunyn-Schmiedeberg's Arch. Pharmacol. 293: 109-114 (Vetulani et al., 1976). Reserpine (Sigma, USA) was dissolved in physiological saline and injected daily for 14 days at the dose of 0.1 mg/kg subcutaneously (SC). A period of 1 hour after the last injection of reserpine, animals were subjected to the open field test. This consisted of the measure of ambulation and rearing of the rat in a circular area divided into 17 equal sections and lighted by a centrally suspended lamp. The areas explored by the rat at least with anterior paws was recorded in 5 min test. The episodes of rearing towards the centre or the walls were also recorded in 5 min test.
# All data were analysed using univariate random design analysis of variance (one-way ANOVA) and the post hoc Dunnett's test for multiple comparisons. A P-value of 0.05 or less was considered as indicative of a significant difference.
# BKW male albino mice = assay: Black and white box test (Example 10); conditions: 5-min period; for TB = time in white section: signed value
# rats [3] = assay: Elevated plus maze (X-maze) in rats; conditions: 5-min period
# Excerpt: The X-maze is constructed from Perspex® and comprises four arms (2 open, 2 closed), each 50 cm long by 9.5 wide and 40 high (closed, arms only) connected by a centre square (9.5×9.5). The open arm has a small lip (3 mm) to assist in the retention of the rat on the arm. The apparatus was housed in a room under subdued lighting conditions.
# This model is based on the observation of spontaneous activity of rodents placed in an aversive environment produced by height and often spaces. […] Anxiolytic drugs increase the exploratory activity and the number of entries into the open arms. Rats were allowed at least 1 hour to acclimatise to the environment before testing commenced. Drug treatments were given IP in a pseudo-random, blind design, 40 minutes before behavioural testing, as appropriate. Rats were placed onto the centre square of the X-maze facing a specified open arm, and its behaviour was recorded by remote video over a 5 minute experimental period. The behavioural parameters were subsequently assessed by technicians reviewing the videotape and included: entries into each arm type, time spent on each arm type, rearing, stretch attend postures and head dips.
# mouse = assay: Black and white box test (Example 14); conditions: 1.25 mg/kg
# Procedure: The characteristic action of anxiolytic agents is to cause a redistribution of exploratory activity and time spent in the white section.
# Each mouse was placed into the centre of the white, brightly lit area bacldng the opening between the B/W compartments. Animals behaviour was recorded by a remote video camera for 5 minutes. The recordings were subsequently evaluated on the TV by two operators unaware of drug treatment. The following behavioural parameters were recorded: • a) the latency of the initial movement from the white to the black area: L (sec); • b) the time spent in the white area TW (sec); the time spent in the black area is calculated by the difference: […] (sec); • c) the number of transitions between the two compartments T (No./5 min); • d) the total activity in the white and black compartments, Atot (No./5 min); • e) the total activity in the white area throughout the time spent in the white area: • AtotW/TW (No./sec); • f) the total activity in the black area throughout the time spent in the black area: AtotB/TB (No./sec); • g) the total number of exploratory rearings: Rtot (No./5 min); • h) the total number of line crossings: Ctot (No./5 min); • i) the number of exploratory rearings in the white section RW/TW (No./sec); • j) the number of line crossings in the white section CW/TW (No./sec).
# Each group was composed by 8 animals.
# rats [4] = assay: Escape deficit test (learned helplessness), antidepressant activity; conditions: rats treated IP for 15 days, unavoidable stress 16 h and escape test 24 h after last dosing; out of 30 trials; dose not given
# Procedure: The “Escape deficit” test that derives from the classic paradigm of “learned helplessness” was used, as described by Meloni et al. in Pharmacol. Biochem. Behav. 46, 423-6 (1993) and Gambarana et al. in Behav. Pharmacol. 6, 66-73 (1995) and Neuropsychopharmacol. 21, 247-57 (1999). Exposure to an unavoidable stress induces […], which, after 24 hours, makes the rats unable to escape from a nociceptive stimulus. Rats exposed to unavoidable stress make 0-5 escapes out of 30 trials, while naïve rats realise 26-30 escapes. Classical anti-depressives prevent the occurrence of the escape deficit after chronic treatment (15 days).
# Rats were treated intra-peritoneally (IP) for 15 days, and then submitted to the unavoidable stress (16 hours after the last dosing) prior to being subjected to the escape test (24 hours after the last dosing).
# [5] = acute 50 mg/kg IP 1 h prior to open field test
# [6] = 1.25 mg/kg IP 40 min before test
# [7] = IP 40 min before test, dose not given
# [8] = 0.1 mg/kg IP 40 min before test
# [9] = 0.125 mg/kg IP 40 min before test
# [10] = acute 0.2 mg/kg IP 1 h prior to open field test
# [11] = acute 0.5 mg/kg IP 1 h prior to open field test
# [12] = acute 0.5 mg/kg IP 1 h prior to open field test, listed as Example 1
compound,measurement,setting,value
"CN(C)CCCN1c2ccccc2CCc2ccc(Cl)cc21 [Clomipramine, clomipramine hydrochloride, reference compound]",Duration of Immobility,"[1]; 50 mg/kg IP, injections 24, 5 and 1 hour prior to test",105.95 ± 9.13
same,No. of Floor Units (ambulation),[2]; [5],84.6 ± 8.1
same,Rearing Episodes,[2]; [5],2.4 ± 0.2
CN1C(=O)CN=C(c2ccccc2)c2cc(Cl)ccc21 [Diazepam],Atot = Total exploratory activity,BKW male albino mice; [6],+46.7
same,CB/TB = crossings in the white compartment/time in white,BKW male albino mice; [6],+0.08
same,CN/TN = crossings in the black compartment/time in black,BKW male albino mice; [6],+0.1
same,Ctot = total number of crossings,BKW male albino mice; [6],+30.7
same,FI = Initial potency,BKW male albino mice; [6],+12.7
same,RB/TB = rearings in the white compartment/time in white,BKW male albino mice; [6],+0.06
same,RN/TN = rearings in the black compartment/time in black,BKW male albino mice; [6],+0.09
same,Rtot = Total number of rearings,BKW male albino mice; [6],+21.2
same,TB = time in white section,BKW male albino mice; [6],+33.2
same,% time spent in open arms,rats [3]; [7],25 ± 5%
same,No. of entries in open arms,rats [3]; [7],4 ± 0.6
same,"Parameter 5: Total Activity in white area: AtotW/TW, Mean",mouse,.723 No./sec
same,"Parameter 6: Total Activity in black area: AtotB/TB, Mean",mouse,.723 No./sec
same,"Parameter 7: Rtot (total number of exploratory rearings), Mean",mouse,68.750 No./5 min
same,"Parameter 8: Ctot (total number of line crossings), Mean",mouse,144.375 No./5 min
same,"Parameter 9: RW/TW (exploratory rearings in the white section), Mean",mouse,.124 No./sec
same,"Parameter 10: CW/TW (line crossings in the white section), Mean",mouse,.599 No./sec
same,"Parameter 1: Latency L (initial movement from the white to the black area), Mean",mouse; 5-min recording,13.750 s
same,"Parameter 2: Time spent in White area (TW), Mean",mouse; 5-min recording,97.750 s
same,"Parameter 3: Transitions/5 min (T), Mean",mouse; transitions between the two compartments,13.375 No./5 min
same,"Parameter 4: Total Activity: Atot, Mean",mouse; white and black compartments,213.125 No./5 min
"O=C1CCCC=C1C1COCCN1O (centres unmarked) [Ex. 1 (Abio 09/01), 2-(4-hydroxy-3-morpholinyl)-2-cyclohexenone]",Atot = Total exploratory activity,BKW male albino mice; [8],+10.4
same,CB/TB = crossings in the white compartment/time in white,BKW male albino mice; [8],−0.05
same,CN/TN = crossings in the black compartment/time in black,BKW male albino mice; [8],0.08
same,Ctot = total number of crossings,BKW male albino mice; [8],+7.5
same,FI = Initial potency,BKW male albino mice; [8],+11.5
same,PT = Total passages through the partition,BKW male albino mice; [8],+0.9
same,RB/TB = rearings in the white compartment/time in white,BKW male albino mice; [8],+0.02
same,RN/TN = rearings in the black compartment/time in black,BKW male albino mice; [8],+0.06
same,Rtot = Total number of rearings,BKW male albino mice; [8],+5
same,TB = time in white section,BKW male albino mice; [8],+53.4
same,% time spent in open arms,rats [3]; [9],39 ± 10%
same,No. of entries in open arms,rats [3]; [9],5.2 ± 1.4
same,No. of escapes,rats [4],23.3 ± 1.3
same,Duration of Immobility,[1]; 0.2 mg/kg IP,167.00 ± 11.11
same,Duration of Immobility,"[1]; 0.5 mg/kg IP, 0.5 mg/kg",109.83 ± 9.12
same,Duration of Immobility,"[1]; 0.5 mg/kg IP, listed as Example 1, 0.5 mg/kg",significant decrease of immobility time
same,No. of Floor Units (ambulation),[2]; [10],128.1 ± 11.9
same,Rearing Episodes,[2]; [10],5.9 ± 0.3
same,No. of Floor Units (ambulation),[2]; [11],92.2 ± 11.1
same,Rearing Episodes,[2]; [11],2.2 ± 0.5
same,No. of Floor Units (ambulation),[2]; [12],decreased ambulation
same,Rearing Episodes,[2]; [12],decreased ambulation (number of floor units entered) and rearing
"cis-1,2,3,4,5,6a,7,8,9,10a,10b-dodeca-1,4-oxazino-[3′,4′:2,3]benzo[d]isoxazol-4-one [Comparative Compound A]",Atot = Total exploratory activity,BKW male albino mice; [8],+53.7
same,CB/TB = crossings in the white compartment/time in white,BKW male albino mice; [8],+0.01
same,CN/TN = crossings in the black compartment/time in black,BKW male albino mice; [8],+0.08
same,Ctot = total number of crossings,BKW male albino mice; [8],+19.1
same,FI = Initial potency,BKW male albino mice; [8],+8.1
same,PT = Total passages through the partition,BKW male albino mice; [8],+4.1
same,RB/TB = rearings in the white compartment/time in white,BKW male albino mice; [8],+0.04
same,RN/TN = rearings in the black compartment/time in black,BKW male albino mice; [8],+0.13
same,Rtot = Total number of rearings,BKW male albino mice; [8],+23.9
same,TB = time in white section,BKW male albino mice; [8],+52.1
same,% time spent in open arms,rats [3]; [9],21 ± 11%
same,No. of entries in open arms,rats [3]; [9],3 ± 1.1
same,No. of escapes,rats [4],3.5 ± 0.9
